System: MV-4-11 cells
Assay: Gene expression microarray analysis (Affymetrix PrimeView) and GSEA
Type: cell-based, human
Set-up: RFU PODN (11730768_x_at) / Fold change /veh PODN (11730768_x_at) / RFU LINC00158 (11744669_a_at) / Fold change /veh LINC00158 (11744669_a_at) / RFU DUSP10 (11751237_a_at) / Fold change /veh DUSP10 (11751237_a_at) / RFU ID3 (11757404_x_at) / Fold change /veh ID3 (11757404_x_at) / RFU PLEKHG5 (11737974_s_at) / Fold change /veh PLEKHG5 (11737974_s_at) / RFU LRRC4B (11730491_at) / Fold change /veh LRRC4B (11730491_at) / RFU GIMAP4 (11747438_a_at) / Fold change /veh GIMAP4 (11747438_a_at) / RFU KRT8 (11758183_x_at) / Fold change /veh KRT8 (11758183_x_at) / RFU CNN1 (11734310_a_at) / Fold change /veh CNN1 (11734310_a_at) / RFU VPS37D (11726825_at) / Fold change /veh VPS37D (11726825_at) / RFU C10orf10 (11716522_x_at) / Fold change /veh C10orf10 (11716522_x_at) / RFU KIR2DL2 /// KIR2DL4 /// KIR2DL5A /// KIR2DL5B /// KIR2DS1 /// KIR2DS2 /// KIR2DS3 /// KIR2DS4 /// KIR3DL3 /// KIR3DL3 /// KIR3DS1 (11738374_at) / Fold change /veh KIR2DL2 /// KIR2DL4 /// KIR2DL5A /// KIR2DL5B /// KIR2DS1 /// KIR2DS2 /// KIR2DS3 /// KIR2DS4 /// KIR3DL3 /// KIR3DL3 /// KIR3DS1 (11738374_at) / RFU C1QL1 (11718748_at) / Fold change /veh C1QL1 (11718748_at) / RFU TMPRSS4 (11747572_a_at) / Fold change /veh TMPRSS4 (11747572_a_at) / RFU HAMP (11756126_x_at) / Fold change /veh HAMP (11756126_x_at) / RFU RNFT2 (11725882_a_at) / Fold change /veh RNFT2 (11725882_a_at) / RFU NR4A2 (11747474_a_at) / Fold change /veh NR4A2 (11747474_a_at) / RFU ABCC12 (11746883_a_at) / Fold change /veh ABCC12 (11746883_a_at) / RFU TMEM136 (11760407_x_at) / Fold change /veh TMEM136 (11760407_x_at) / RFU CLDN22 /// WWC2 (11732394_at) / Fold change /veh CLDN22 /// WWC2 (11732394_at) / RFU HLA-DPB1 (11760878_x_at) / Fold change /veh HLA-DPB1 (11760878_x_at) / RFU SPINT1 (11716480_a_at) / Fold change /veh SPINT1 (11716480_a_at) / RFU GAP43 (11754022_s_at) / Fold change /veh GAP43 (11754022_s_at) / RFU A4GNT (11735810_at) / Fold change /veh A4GNT (11735810_at) / RFU PRB3 (11715151_x_at) / Fold change /veh PRB3 (11715151_x_at) / RFU TUBB4B (11761932_at) / Fold change /veh TUBB4B (11761932_at) / RFU CAPN14 (11732068_a_at) / Fold change /veh CAPN14 (11732068_a_at) / RFU TMCC2 (11721928_a_at) / Fold change /veh TMCC2 (11721928_a_at) / RFU IRGQ (11745062_a_at) / Fold change /veh IRGQ (11745062_a_at) / RFU FAM174B (11720279_a_at) / Fold change /veh FAM174B (11720279_a_at) / RFU TMPRSS4 (11748680_a_at) / Fold change /veh TMPRSS4 (11748680_a_at) / RFU FAM212B (11763350_a_at) / Fold change /veh FAM212B (11763350_a_at) / RFU PLEKHG5 (11743358_a_at) / Fold change /veh PLEKHG5 (11743358_a_at) / RFU ZSCAN30 (11745921_a_at) / Fold change /veh ZSCAN30 (11745921_a_at) / RFU CMKLR1 (11741424_a_at) / Fold change /veh CMKLR1 (11741424_a_at) / RFU LOC101060620 /// MAPK8IP1 (11723275_at) / Fold change /veh LOC101060620 /// MAPK8IP1 (11723275_at) / RFU SPTSSB (11747773_x_at) / Fold change /veh SPTSSB (11747773_x_at) / RFU PRSS12 (11739890_at) / Fold change /veh PRSS12 (11739890_at) / RFU BIN1 (11741810_x_at) / Fold change /veh BIN1 (11741810_x_at) / RFU WNT11 (11732464_a_at) / Fold change /veh WNT11 (11732464_a_at) / RFU C10orf10 (11716521_a_at) / Fold change /veh C10orf10 (11716521_a_at) / RFU C5orf56 (11738089_at) / Fold change /veh C5orf56 (11738089_at) / RFU CYB561 (11721691_x_at) / Fold change /veh CYB561 (11721691_x_at) / RFU ANKRD19P (11752326_a_at) / Fold change /veh ANKRD19P (11752326_a_at) / RFU OR2T12 /// OR2T33 /// OR2T8 (11738714_s_at) / Fold change /veh OR2T12 /// OR2T33 /// OR2T8 (11738714_s_at) / RFU VCAN (11748164_a_at) / Fold change /veh VCAN (11748164_a_at) / RFU JSRP1 (11732532_at) / Fold change /veh JSRP1 (11732532_at) / RFU KRTAP10-11 (11738290_x_at) / Fold change /veh KRTAP10-11 (11738290_x_at) / RFU MYO3A (11730013_a_at) / Fold change /veh MYO3A (11730013_a_at) / RFU EBF3 (11725865_a_at) / Fold change /veh EBF3 (11725865_a_at) / RFU CAMK2N1 (11719241_x_at) / Fold change /veh CAMK2N1 (11719241_x_at) / RFU C5orf56 (11738088_a_at) / Fold change /veh C5orf56 (11738088_a_at) / RFU OLFML3 (11715873_a_at) / Fold change /veh OLFML3 (11715873_a_at) / RFU LOC100653217 /// NTM (11731650_a_at) / Fold change /veh LOC100653217 /// NTM (11731650_a_at) / RFU MAPK11 (11762145_a_at) / Fold change /veh MAPK11 (11762145_a_at) / RFU FIZ1 (11724087_x_at) / Fold change /veh FIZ1 (11724087_x_at) / RFU OASL (11726364_x_at) / Fold change /veh OASL (11726364_x_at) / RFU SOX15 (11748057_x_at) / Fold change /veh SOX15 (11748057_x_at) / RFU CD79A (11719716_a_at) / Fold change /veh CD79A (11719716_a_at) / RFU HIST1H1D (11736915_at) / Fold change /veh HIST1H1D (11736915_at) / RFU CASKIN2 (11723855_a_at) / Fold change /veh CASKIN2 (11723855_a_at) / RFU LOC730098 (11760151_x_at) / Fold change /veh LOC730098 (11760151_x_at) / RFU OR4N2 (11742367_at) / Fold change /veh OR4N2 (11742367_at) / RFU PRRT2 (11749266_a_at) / Fold change /veh PRRT2 (11749266_a_at) / RFU SNX32 (11753110_a_at) / Fold change /veh SNX32 (11753110_a_at) / RFU CDHR5 (11726645_a_at) / Fold change /veh CDHR5 (11726645_a_at) / RFU RCAN1 (11760418_a_at) / Fold change /veh RCAN1 (11760418_a_at) / RFU FAM167A (11723789_a_at) / Fold change /veh FAM167A (11723789_a_at) / RFU FAM26E (11764081_at) / Fold change /veh FAM26E (11764081_at) / RFU ISYNA1 (11749810_s_at) / Fold change /veh ISYNA1 (11749810_s_at) / RFU ACY1 (11761880_at) / Fold change /veh ACY1 (11761880_at) / RFU 11764098_at / Fold change /veh 11764098_at / RFU SAMD14 (11745864_x_at) / Fold change /veh SAMD14 (11745864_x_at) / RFU NPB (11741838_a_at) / Fold change /veh NPB (11741838_a_at) / RFU TMPRSS6 (11731388_a_at) / Fold change /veh TMPRSS6 (11731388_a_at) / RFU KRTAP10-2 (11738614_at) / Fold change /veh KRTAP10-2 (11738614_at) / RFU ARHGAP8 /// PRR5-ARHGAP8 (11727945_x_at) / Fold change /veh ARHGAP8 /// PRR5-ARHGAP8 (11727945_x_at) / RFU KRTAP5-7 /// NADSYN1 (11734609_at) / Fold change /veh KRTAP5-7 /// NADSYN1 (11734609_at) / RFU RASL12 (11751679_a_at) / Fold change /veh RASL12 (11751679_a_at) / RFU CDKN2B (11736163_a_at) / Fold change /veh CDKN2B (11736163_a_at) / RFU PRF1 (11729649_at) / Fold change /veh PRF1 (11729649_at) / RFU, ZNF638 /// ZNF638-IT1 / Fold change vs veh, ZNF638 /// ZNF638-IT1 / RFU, PANK3 / Fold change vs veh, PANK3 / RFU, SH3YL1 / Fold change vs veh, SH3YL1 / RFU, ZEB2 / Fold change vs veh, ZEB2 / RFU, NRIP1 / Fold change vs veh, NRIP1 / RFU, PTTG1IP / Fold change vs veh, PTTG1IP / RFU, CAPN2 / Fold change vs veh, CAPN2 / RFU, MED14 / Fold change vs veh, MED14 / RFU, SNORA58 / Fold change vs veh, SNORA58 / RFU, C1orf63 / Fold change vs veh, C1orf63 / RFU, LRRFIP1 / Fold change vs veh, LRRFIP1 / RFU, NDUFAF7 / Fold change vs veh, NDUFAF7 / RFU, SLC12A2 / Fold change vs veh, SLC12A2 / RFU, IBTK / Fold change vs veh, IBTK / RFU, ESF1 / Fold change vs veh, ESF1 / Fold change vs veh, TMEM50B / RFU, TAOK1 / Fold change vs veh, TAOK1 / RFU, ACBD3 / Fold change vs veh, ACBD3 / RFU, TMA16 / Fold change vs veh, TMA16 / RFU, RWDD3 / Fold change vs veh, RWDD3 / RFU, BCAT1 / Fold change vs veh, BCAT1 / RFU, EDEM3 / Fold change vs veh, EDEM3 / RFU, TMEM33 / Fold change vs veh, TMEM33 / RFU, WDR75 / Fold change vs veh, WDR75 / RFU, AHCTF1 / Fold change vs veh, AHCTF1 / RFU, TFRC / Fold change vs veh, TFRC / RFU, ZDHHC17 / Fold change vs veh, ZDHHC17 / RFU, NOM1 / Fold change vs veh, NOM1 / RFU, ARL8B / Fold change vs veh, ARL8B / RFU, ZBTB11 / Fold change vs veh, ZBTB11 / RFU, TAMM41 / Fold change vs veh, TAMM41 / RFU, KIAA1704 /// LOC100996395 / Fold change vs veh, KIAA1704 /// LOC100996395 / RFU, ING1 / Fold change vs veh, ING1 / RFU, TRMT61B / Fold change vs veh, TRMT61B / RFU, FUBP3 / Fold change vs veh, FUBP3 / RFU, TP53 / Fold change vs veh, TP53 / RFU, TNKS2 / Fold change vs veh, TNKS2 / RFU, ZFP14 / Fold change vs veh, ZFP14 / RFU, ACTR2 / Fold change vs veh, ACTR2 / RFU, PPP3R1 / Fold change vs veh, PPP3R1 / RFU, PIK3R1 / Fold change vs veh, PIK3R1 / RFU, HNRNPA1 / Fold change vs veh, HNRNPA1 / RFU, RNF170 / Fold change vs veh, RNF170 / RFU, ZNF28 / Fold change vs veh, ZNF28 / RFU, RNGTT / Fold change vs veh, RNGTT / RFU, OGT / Fold change vs veh, OGT / RFU, BRD1 / Fold change vs veh, BRD1 / RFU, MARS / Fold change vs veh, MARS / RFU, ZNF655 / Fold change vs veh, ZNF655 / RFU, FAHD1 / Fold change vs veh, FAHD1 / RFU, BDP1 / Fold change vs veh, BDP1 / RFU, LRRCC1 / Fold change vs veh, LRRCC1 / RFU, ARID1A / Fold change vs veh, ARID1A / RFU, ZNF146 / Fold change vs veh, ZNF146 / RFU, ZNF330 / Fold change vs veh, ZNF330 / RFU, GPN3 / Fold change vs veh, GPN3 / RFU, C9orf123 / Fold change vs veh, C9orf123 / RFU, N4BP2L2 / Fold change vs veh, N4BP2L2 / RFU, ARFIP1 / Fold change vs veh, ARFIP1 / RFU, FAM179B / Fold change vs veh, FAM179B / RFU, BCL10 / Fold change vs veh, BCL10 / RFU, UHRF1BP1L / Fold change vs veh, UHRF1BP1L / RFU, BET1 / Fold change vs veh, BET1 / RFU, CNOT2 / Fold change vs veh, CNOT2 / RFU, ZNF268 / Fold change vs veh, ZNF268 / Fold change vs veh, ZNF507 / RFU, DGCR2 / Fold change vs veh, DGCR2 / RFU, WDSUB1 / Fold change vs veh, WDSUB1 / Fold change vs veh, HSP90B1 /// MIR3652 / RFU, ADSS / Fold change vs veh, ADSS / RFU, GK / Fold change vs veh, GK / RFU, ZNF148 / Fold change vs veh, ZNF148 / RFU, TAF9 / Fold change vs veh, TAF9 / RFU, SLC1A5 / Fold change vs veh, SLC1A5 / RFU, SLMO2 / Fold change vs veh, SLMO2 / RFU, ABCC4 / Fold change vs veh, ABCC4 / RFU, LOC101060439 /// RAP1B / Fold change vs veh, LOC101060439 /// RAP1B / RFU, RFX7 / Fold change vs veh, RFX7 / RFU, GTPBP10 / Fold change vs veh, GTPBP10 / RFU, CNEP1R1 / Fold change vs veh, CNEP1R1 / RFU, BIVM-ERCC5 /// ERCC5 / Fold change vs veh, BIVM-ERCC5 /// ERCC5 / RFU, ILF3 / Fold change vs veh, ILF3 / RFU 11762660_at / Fold change /veh 11762660_at / RFU VCAN (11757783_s_at) / Fold change /veh VCAN (11757783_s_at) / RFU DDX43 (11728927_at) / Fold change /veh DDX43 (11728927_at) / RFU KRT8 (11758188_x_at) / Fold change /veh KRT8 (11758188_x_at) / RFU NKD1 (11759106_at) / Fold change /veh NKD1 (11759106_at) / RFU SRD5A1 (11742802_a_at) / Fold change /veh SRD5A1 (11742802_a_at) / RFU TPSAB1 /// TPSB2 (11721975_s_at) / Fold change /veh TPSAB1 /// TPSB2 (11721975_s_at) / RFU GSTM3 (11746129_a_at) / Fold change /veh GSTM3 (11746129_a_at) / RFU IL23R (11737362_x_at) / Fold change /veh IL23R (11737362_x_at) / RFU TMEM51 (11727254_a_at) / Fold change /veh TMEM51 (11727254_a_at) / RFU PIWIL2 (11732686_x_at) / Fold change /veh PIWIL2 (11732686_x_at) / RFU ORM1 (11744905_x_at) / Fold change /veh ORM1 (11744905_x_at) / RFU CCDC152 (11743942_at) / Fold change /veh CCDC152 (11743942_at) / RFU ECM1 (11717891_a_at) / Fold change /veh ECM1 (11717891_a_at) / RFU IL23R (11748794_a_at) / Fold change /veh IL23R (11748794_a_at) / RFU TNFAIP8L3 (11732012_x_at) / Fold change /veh TNFAIP8L3 (11732012_x_at) / RFU MBOAT4 (11741988_at) / Fold change /veh MBOAT4 (11741988_at) / RFU 11764193_at / Fold change /veh 11764193_at / RFU TMEM53 (11763286_at) / Fold change /veh TMEM53 (11763286_at) / RFU MAGEB2 (11727129_at) / Fold change /veh MAGEB2 (11727129_at) / RFU TMEM200A (11744735_a_at) / Fold change /veh TMEM200A (11744735_a_at) / RFU CCDC152 (11751479_a_at) / Fold change /veh CCDC152 (11751479_a_at) / RFU FAM211A (11726209_a_at) / Fold change /veh FAM211A (11726209_a_at) / RFU RGS16 (11746705_a_at) / Fold change /veh RGS16 (11746705_a_at) / RFU VCAN (11755009_s_at) / Fold change /veh VCAN (11755009_s_at) / RFU RHOB (11743442_s_at) / Fold change /veh RHOB (11743442_s_at) / RFU RGS16 (11720943_a_at) / Fold change /veh RGS16 (11720943_a_at) / RFU RGS16 (11720944_at) / Fold change /veh RGS16 (11720944_at) / RFU, VPS4B / Fold change vs veh, VPS4B / RFU, CREB1 / Fold change vs veh, CREB1 / RFU, DNAJC13 / Fold change vs veh, DNAJC13 / RFU, GNAQ / Fold change vs veh, GNAQ / RFU, CDK5R1 / Fold change vs veh, CDK5R1 / RFU, ZRANB3 / Fold change vs veh, ZRANB3 / RFU, CUL4A / Fold change vs veh, CUL4A / RFU, CCNY / Fold change vs veh, CCNY / RFU, UFL1 / Fold change vs veh, UFL1 / RFU, COG3 / Fold change vs veh, COG3 / RFU, DIAPH2 / Fold change vs veh, DIAPH2 / RFU, SKA2 / Fold change vs veh, SKA2 / RFU, AFF3 / Fold change vs veh, AFF3 / RFU, LMF1 / Fold change vs veh, LMF1 / RFU, IPO11 / Fold change vs veh, IPO11 / RFU, DFFB / Fold change vs veh, DFFB / RFU, FOXP1 / Fold change vs veh, FOXP1 / RFU, CARD8 / Fold change vs veh, CARD8 / RFU, STRN3 / Fold change vs veh, STRN3 / RFU, ADK / Fold change vs veh, ADK / RFU, RASSF2 / Fold change vs veh, RASSF2 / RFU, WIPF1 / Fold change vs veh, WIPF1 / RFU, LARP1B / Fold change vs veh, LARP1B / RFU, RASA1 / Fold change vs veh, RASA1 / RFU, RB1 / Fold change vs veh, RB1 / RFU, PPFIA1 / Fold change vs veh, PPFIA1 / RFU, MAT2A / Fold change vs veh, MAT2A / RFU, CCT5 / Fold change vs veh, CCT5 / RFU, WDR92 / Fold change vs veh, WDR92 / RFU, CUX1 / Fold change vs veh, CUX1 / RFU, TTC7A / Fold change vs veh, TTC7A / RFU, TMEM135 / Fold change vs veh, TMEM135 / RFU, DEPTOR / Fold change vs veh, DEPTOR / RFU, CPM / Fold change vs veh, CPM / RFU, DNAJB6 / Fold change vs veh, DNAJB6 / RFU, CACNA2D3 / Fold change vs veh, CACNA2D3 / RFU, DTX4 / Fold change vs veh, DTX4 / RFU, TFCP2 / Fold change vs veh, TFCP2 / RFU, GMCL1 /// GMCL1P1 / Fold change vs veh, GMCL1 /// GMCL1P1 / RFU, AEBP2 / Fold change vs veh, AEBP2 / RFU, SNHG1 /// SNORD22 /// SNORD25 /// SNORD26 /// SNORD27 /// SNORD28 /// SNORD29 /// SNORD31 / Fold change vs veh, SNHG1 /// SNORD22 /// SNORD25 /// SNORD26 /// SNORD27 /// SNORD28 /// SNORD29 /// SNORD31 / Fold change (Aza/veh), C12orf56 (ProbeSet 11735607_a_at) / Fold change (ACY-1035/veh), C12orf56 (ProbeSet 11735607_a_at) / Fold change (Aza/veh), FGFR1OP (ProbeSet 11751329_s_at) / Fold change (ACY-1035/veh), FGFR1OP (ProbeSet 11751329_s_at) / Fold change (Aza/veh), VPS36 (ProbeSet 11739960_a_at) / Fold change (ACY-1035/veh), VPS36 (ProbeSet 11739960_a_at) / RFU SYPL1 (11715823_x_at) / Fold change /veh SYPL1 (11715823_x_at) / RFU IGFBP7 (11715501_s_at) / Fold change /veh IGFBP7 (11715501_s_at) / RFU REEP3 (11722064_at) / Fold change /veh REEP3 (11722064_at) / RFU IGLL1 (11728026_x_at) / Fold change /veh IGLL1 (11728026_x_at): dose or concentration left out as unconfirmed
Conditions: MV-4-11 cells, 48 hours

## Nc1ncn([C@@H]2O[C@H](CO)[C@@H](O)[C@H]2O)c(=O)n1 [azacitidine]
  RFU 11764193_at: 40.50 RFU

From article PMC5218480 (PLoS ONE, 2017)
